This data set can be described thus: UV absorbance spectrum in solution (λmax, λcrit, extinction coefficients). It counts as physicochemical. The settings on record: for λcrit: critical wavelength; for E (1%, 1 cm): mass extinction coefficient; for ε: molar extinction coefficient, in M-1 cm-1 (unit assumed). An excerpt: FIG. 1 is a graphical representation of the absorbance of compounds 142 and 143 measured in a 10 mm cuvette as 0.001% solutions in methanol (142 is the uppermost trace at peak point of approximately 330 nm); The synthesised benzoyl functionalised compounds and their spectroscopic properties can be seen in table 2 wherein; breakthrough denotes the value in nm where transmittance increases beyond 1%; steepness refers to the distance in nm over which transmittance increases from 1 to 80% (a higher value indicates a less steep transition from absorbing to transmitting and is generally unfavourable); and ^a denotes an average of multiple measurements. As a general comment, it can be noted that the benzoyl substituted compounds gave similar absorbance maxima to the corresponding trifluoroacetyl derivative.

The structures appear in SMILES notation.

Consider `O=C(/C(=C\N(Cc1ccccc1)c1ccccc1)c1ccccc1)C(F)(F)F` [Compound 162], for which the λmax is 329 nm; the λcrit came out at 365 nm; the “E (1%, 1 cm)” value is recorded as 620; the ε came to 23495.

For `O=C(/C(=C\N1CCCc2ccccc21)c1ccccc1)C(F)(F)F` [Compound 163], the λmax came to 354 nm; the λcrit is recorded as 383 nm; the “E (1%, 1 cm)” value is given as 811; the ε was 26848.

As to `C=CCN(/C=C(\C(=O)C(F)(F)F)c1ccccc1)c1ccccc1` [Compound 172], the λmax is on record as 331 nm; the λcrit was determined as 365 nm; the “E (1%, 1 cm)” value was 673; the ε is given as 22290.

Take `CCN(/C=C(\C(=O)C(F)(F)F)c1ccccc1)c1ccccc1C` [Compound 177]: the λmax is 320 nm; the λcrit stood at 354 nm; the “E (1%, 1 cm)” value stood at 707; the ε amounted to 23543.

On to `CCN(/C=C(\C(=O)C(F)(F)F)c1ccccc1)c1cccc(C)c1` [Compound 186], for which the λmax is on record as 331 nm; the λcrit is 367 nm; the “E (1%, 1 cm)” value is on record as 709; the ε came out at 23605.

Take `CCN(/C=C(\C(=O)C(F)(F)F)c1ccccc1)c1cccc2ccccc12` [Compound 189]: the λmax was determined as 324 nm; the λcrit is reported as 357 nm; the “E (1%, 1 cm)” value is listed as 634; the ε is 23400.

For the molecule `CCN(/C=C(\C(=O)C(F)(F)C(F)(F)C(F)(F)C(=O)/C(=C\N(CC)c1ccccc1)c1ccccc1)c1ccccc1)c1ccccc1` [Compound 190], the λmax amounted to 330 nm; the λcrit was found to be 370 nm; the “E (1%, 1 cm)” value came out at 616; the ε was 40027.

Turning to `O=C(/C(=C\N1CCCCC1)c1ccccc1)C(F)(F)F` [Compound 192], the λmax is recorded as 322 nm; the λcrit was 353 nm; the “E (1%, 1 cm)” value stood at 884; the ε is reported as 25028.

`O=C(/C(=C\N1CCCC1)c1ccccc1)C(F)(F)F` [Compound 193]: the λmax amounted to 323 nm; the λcrit is 354 nm; the “E (1%, 1 cm)” value was 769; the ε is 20673.

Regarding `O=C(/C(=C\N1CCc2ccccc2C1)c1ccccc1)C(F)(F)F` [Compound 194], the λmax was 321 nm; the λcrit came out at 352 nm; the “E (1%, 1 cm)” value was 687; the ε was 22743.

For the molecule `O=C(/C(=C\N1CCN(/C=C(/C(=O)C(F)(F)F)c2ccccc2)CC1)c1ccccc1)C(F)(F)F` [Compound 195], the λmax stood at 339 nm; the λcrit was found to be 360 nm; the “E (1%, 1 cm)” value is listed as 689; the ε is listed as 33248.

On to `CCCN(/C=C(\C(=O)C(F)(F)F)c1ccccc1)c1ccc(N(/C=C(\C(=O)C(F)(F)F)c2ccccc2)CCC)cc1` [Compound 196], for which the λmax amounted to 344 nm; the λcrit amounted to 378 nm; the “E (1%, 1 cm)” value came out at 714; the ε was found to be 41997.

Turning to `CCOc1ccc(/C(=C/N(CC)c2ccccc2)C(=O)C(F)(F)F)cc1` [Compound 197], the λmax is 335 nm; the λcrit was determined as 369 nm; the “E (1%, 1 cm)” value was determined as 1166; the ε worked out at 42359.

Take `O=C(/C(=C\N1CCc2cc(F)ccc21)c1ccccc1)C(F)(F)F` [Compound 198]: the λmax was 368 nm; the λcrit is 389 nm; the “E (1%, 1 cm)” value is reported as 890; the ε is listed as 29804.

As for `Cc1cccc2c1N(/C=C(\C(=O)C(F)(F)F)c1ccccc1)CC2` [Compound 199], the λmax was 360 nm; the λcrit is listed as 386 nm; the “E (1%, 1 cm)” value is reported as 975; the ε amounted to 32273.

Turning to `O=C(/C(=C\N1CCc2ccc([N+](=O)[O-])cc21)c1ccccc1)C(F)(F)F` [Compound 202], the λmax turned out to be 355 nm; the λcrit amounted to 387 nm; the “E (1%, 1 cm)” value worked out at 903; the ε was 32693.

With `Cc1ccc2c(c1)CCN2/C=C(\C(=O)C(F)(F)F)c1ccccc1` [Compound 205], the λmax is 371 nm; the λcrit came out at 391 nm; the “E (1%, 1 cm)” value is listed as 1108; the ε was found to be 36692.

On to `O=C(/C(=C\N1CCc2cc([N+](=O)[O-])ccc21)c1ccccc1)C(F)(F)F` [Compound 206], for which the λmax is listed as 398 nm; the λcrit amounted to 396 nm; the “E (1%, 1 cm)” value came out at 1390; the ε was determined as 50315.

As to `O=C(/C(=C\N1CCOCC1)c1ccccc1)C(F)(F)F` [Compound 209], the λmax is 320 nm; the λcrit amounted to 351 nm; the “E (1%, 1 cm)” value was 855; the ε is 24356.

In the case of `O=C(/C(=C\N1CCCN(/C=C(/C(=O)C(F)(F)F)c2ccccc2)CC1)c1ccccc1)C(F)(F)F` [Compound 210], the λmax came out at 326 nm; the λcrit amounted to 356 nm; the “E (1%, 1 cm)” value was determined as 819; the ε is given as 40611.

As to `CC1CCc2ccccc2N1/C=C(\C(=O)C(F)(F)F)c1ccccc1` (stereo not drawn) [Compound 211], the λmax is 350 nm; the λcrit worked out at 380 nm; the “E (1%, 1 cm)” value was 837; the ε is 28907.

Regarding `O=C(/C(=C\N1CCc2cc(Br)ccc21)c1ccccc1)C(F)(F)F` [Compound 214], the λmax amounted to 371 nm; the λcrit amounted to 390 nm; the “E (1%, 1 cm)” value was determined as 994; the ε is 39265.

As for `CCN(/C=C(\C(=O)C(F)(F)F)c1ccccc1)c1ccc(Br)cc1` [Compound 216], the λmax stood at 332 nm; the λcrit was determined as 367 nm; the “E (1%, 1 cm)” value was 651; the ε was found to be 25865.

Take `O=C(/C(=C\N1CCCCc2ccccc21)c1ccccc1)C(F)(F)F` [Compound 217]: the λmax was 324 nm; the λcrit is recorded as 359 nm; the “E (1%, 1 cm)” value is recorded as 843; the ε is 29114.

Take `CCN(CCOC(=O)c1ccc2c(c1)CCN2/C=C(\C(=O)C(F)(F)F)c1ccccc1)C(=O)OC(C)(C)C` [Compound 218]: the λmax is given as 375 nm; the λcrit amounted to 391 nm; the “E (1%, 1 cm)” value is recorded as 833; the ε worked out at 44357.

Consider `CN(/C=C(\C(=O)C(F)(F)F)c1ccccc1)c1ccc([N+](=O)[O-])cc1` [Compound 219], for which the λmax is reported as 376 nm; the λcrit is 391 nm; the “E (1%, 1 cm)” value is recorded as 710; the ε is 24860.

Take `CCCCC(CC)COc1ccc(N(/C=C(\C(=O)C(F)(F)F)c2ccccc2)CC)cc1` (stereo not drawn) [Compound 220]: the λmax worked out at 332 nm; the λcrit is given as 371 nm; the “E (1%, 1 cm)” value is listed as 532; the ε was 23819.

For the origin of these results see patent publication US11512042B2, “Enamine compounds for absorbance of electromagnetic energy” (Commonwealth Scientific and Industrial Research Organisation, priority 2015, dated 2022).
